Target: T1, human mGluR2 receptor (Homo sapiens, UniProt Q14416)
T1 construct: expressed in transfected cells; host or cells: CHO cells (membranes)
Test: [35S]GTPγS binding assay, mGluR2 positive allosteric modulation (PAM)
Assay type: biochemical
Settings: membranes from CHO cells transfected with human mGluR2, in presence of glutamate at EC20; for EC50: -log EC50 with EC50 in M, read-out: GTPγS - hmGluR2 PAM pEC50 (converted); for Emax: maximal % effect relative to the control glutamate response, read-out: GTPγS - hmGluR2 PAM Emax
Protocol: The [^35S]GTPγS binding assay is a functional membrane-based assay used to study G-protein coupled receptor (GPCR) function whereby incorporation of a non-hydrolysable form of GTP, [^35S]GTPγS (guanosine 5′-triphosphate, labelled with […] ^35S), is measured. The G-protein α subunit catalyzes the exchange of guanosine 5′-diphosphate (GDP) by guanosine triphosphate (GTP) and on activation of the GPCR by an agonist, [^35S]GTPγS, becomes incorporated and cannot be cleaved to continue the exchange cycle (Harper (1998) Current Protocols in Pharmacology 2.6.1-10, John Wiley & Sons, Inc.). […] Here we describe the use of the [^35S]GTPγS binding assay using membranes from cells transfected with the human mGluR2 receptor and adapted from Schaffhauser et al. ((2003) Molecular Pharmacology 4:798-810) for the detection of the positive allosteric modulation (PAM) properties of the compounds of this invention.
CHO-cells were cultured to pre-confluence and stimulated with 5 mM butyrate for 24 h. Cells were then collected by scraping in PBS and cell suspension was centrifuged (10 min at 4000 RPM in benchtop centrifuge). Supernatant was discarded and pellet gently resuspended in 50 mM Tris-HCl, pH 7.4 by mixing with a vortex and pipetting up and down. The suspension was centrifuged at 16,000 RPM (Sorvall RC-5C plus rotor SS-34) for 10 minutes and the supernatant discarded. The pellet was homogenized in 5 mM Tris-HCl, pH 7.4 using an ultra-turrax homogenizer and centrifuged again (18,000 RPM, 20 min, 4° C.). The final pellet was resuspended in 50 mM Tris-HCl, pH 7.4 and stored at −80° C. in appropriate aliquots before use. Protein concentration was determined by the Bradford method (Bio-Rad, USA) with bovine serum albumin as standard.
Measurement of mGluR2 positive allosteric modulatory activity of test compounds was performed as follows. Test compounds and glutamate were diluted in assay buffer containing 10 mM HEPES acid, 10 mM HEPES salt, pH 7.4, 100 mM NaCl, 3 mM MgCl2 and 10 μM GDP. Human mGlu2 receptor-containing membranes were thawed on ice and diluted in assay buffer supplemented with 14 μg/ml saponin. Membranes were pre-incubated with compound alone or together with a predefined (˜EC20) concentration of glutamate (PAM assay) for 30 min at 30° C. After addition of [^35S]GTPγS (f.c. 0.1 nM), assay mixtures were shaken briefly and further incubated to allow [^35S]GTPγS incorporation on activation (30 minutes, 30° C.). Final assay mixtures contained 7 μg of membrane protein in 10 mM HEPES acid, 10 mM HEPES salt, pH 7.4, 100 mM NaCl, 3 mM MgCl2, 10 μM GDP and 10 μg/ml saponin. Total reaction volume was 200 μl. Reactions were terminated by rapid filtration through Unifilter-96 GF/B plates (Perkin Elmer, Mass., USA) using a 96-well filtermate universal harvester. Filters were washed 6 times with ice-cold 10 mM NaH2PO4/10 mM Na2HPO4, pH 7.4. Filters were then air-dried, and 40 μl of liquid scintillation cocktail (Microscint-O) was added to each well. Membrane-bound radioactivity was counted in a Microplate Scintillation and Luminescence Counter from Perkin Elmer.
The concentration-response curves of representative compounds of the present invention-obtained in the presence of EC20 of mGluR2 agonist glutamate to determine positive allosteric modulation (PAM)-were generated using the Lexis software interface (developed at J&J).

T1 sequence (Q14416 19-872): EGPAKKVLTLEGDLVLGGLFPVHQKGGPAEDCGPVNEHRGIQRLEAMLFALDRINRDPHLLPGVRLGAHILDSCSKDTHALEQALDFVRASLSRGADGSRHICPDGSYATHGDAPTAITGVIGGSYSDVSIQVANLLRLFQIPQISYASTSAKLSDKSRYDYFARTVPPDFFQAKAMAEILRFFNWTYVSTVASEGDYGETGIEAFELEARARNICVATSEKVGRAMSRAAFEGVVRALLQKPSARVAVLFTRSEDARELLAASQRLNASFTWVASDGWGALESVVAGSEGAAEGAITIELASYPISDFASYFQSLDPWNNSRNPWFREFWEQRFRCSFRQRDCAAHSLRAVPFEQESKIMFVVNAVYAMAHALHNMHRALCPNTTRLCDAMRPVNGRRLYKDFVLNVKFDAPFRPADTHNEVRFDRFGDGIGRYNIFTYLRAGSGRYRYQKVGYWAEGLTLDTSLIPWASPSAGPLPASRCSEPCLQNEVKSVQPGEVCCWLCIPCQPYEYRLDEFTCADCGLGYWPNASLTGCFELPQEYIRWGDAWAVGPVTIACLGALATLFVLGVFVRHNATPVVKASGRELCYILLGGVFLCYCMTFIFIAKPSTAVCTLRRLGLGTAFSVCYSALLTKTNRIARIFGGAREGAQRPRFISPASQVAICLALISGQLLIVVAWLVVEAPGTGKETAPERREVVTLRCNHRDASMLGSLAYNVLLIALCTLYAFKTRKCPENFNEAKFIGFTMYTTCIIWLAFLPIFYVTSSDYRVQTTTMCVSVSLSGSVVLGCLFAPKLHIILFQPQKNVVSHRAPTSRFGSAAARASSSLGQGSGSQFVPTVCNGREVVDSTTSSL

| EC50 [nM] | Emax [%] | SMILES |
| --- | --- | --- |
| 871 | 267 | FC(F)(F)c1c(CN2CCO[C@H](c3ccccc3)C2)ccn2c(CC3CC3)nnc12 [Compound 2, 3-(Cyclopropylmethyl)-7-[[(2R)-2-phenyl-4-morpholinyl]methyl]-8-(trifluoromethyl)-1,2,4-triazolo[4,3-a]pyridine] |
| 324 | 294 | FC(F)(F)c1c(CN2CCO[C@@H](c3ccccc3)C2)ccn2c(CC3CC3)nnc12 [Compound 4, 3-(Cyclopropylmethyl)-7-[[(2S)-2-phenyl-4-morpholinyl]methyl]-8-(trifluoromethyl)-1,2,4-triazolo[4,3-c]pyridine] |
